Measurements from PubChem BioAssay (NCI).
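Five concentrations, 48 hours, 96-well plates. GI50 is the concentration that inhibits growth by half. TGI is the concentration that stops growth completely.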

Legend:
Assay in all cases: DTP human tumour cell line panel, 48 h
[1] = system: COLO 205 colon
[2] = system: SF-295 CNS
[3] = system: OVCAR-5 ovarian
[4] = system: RPMI-8226 leukemia
[5] = system: LOX IMVI melanoma
[6] = system: OVCAR-4 ovarian
[7] = system: MOLT-4 leukemia
[8] = system: ACHN renal
[9] = system: OVCAR-3 ovarian
[10] = system: SK-MEL-28 melanoma

SMILES	GI50 [1] [µM]	TGI [1] [µM]	GI50 [2] [µM]	TGI [2] [µM]	GI50 [3] [µM]	TGI [3] [µM]	GI50 [4] [µM]	TGI [4] [µM]	GI50 [5] [µM]	TGI [5] [µM]	GI50 [6] [µM]	TGI [6] [µM]	GI50 [7] [µM]	TGI [7] [µM]	GI50 [8] [µM]	TGI [8] [µM]	TGI [9] [µM]	GI50 [9] [µM]	TGI [10] [µM]	GI50 [10] [µM]
COc1ccc(/C=C\c2cc(OC)c(OC)c(OC)c2)cc1OCC(=O)Nc1nc2ccccc2s1	3.26	> 49.5	0.22	0.646	31.9	> 100	0.683	> 100	0.0808	> 100	0.476	> 100	0.366	> 100	0.107	> 100				
O=C1c2cccc3c(Cl)ccc(c23)C(=O)N1CCCN1CCN(CCCN2C(=O)c3cccc4c(Cl)ccc(c34)C2=O)CC1		> 100		> 100		> 100		> 100		> 100		> 100		> 100		> 100	> 100			
Cc1cc(NCc2cc(Nc3ccnc4cc(Cl)ccc34)ccc2F)nc(N2CCSCC2)n1			1.31	2.76	2.21	8.25	1.42	3.96	1.47	2.79	1.82	5.51	2.12	7.07	1.7	3.53	2.93	1.59		
NC(CCc1ncc(-c2ccccc2)s1)C(=O)O (stereo not drawn)		> 100		> 100				> 100		> 100				> 100		> 100	> 100		> 100	
O=C(O)c1cn(C2CC2)c2cc(N3CCNCC3)c(F)cc2c1=O	> 100	> 100			> 100	> 100	> 100	> 100			> 100	> 100			> 100	> 100	> 100	> 100	> 100	> 100
O=C(Oc1ccc2c(-c3ccccc3)c(C(=O)Nc3ccc(Cl)cc3)c(=O)oc2c1)c1ccccc1		> 100		> 100				> 100		> 100				> 100		> 100	> 100		> 100	
C=C1CCC2C(C)(CO)C(O)CCC2(C)C1C/C=C1/CCOC1=O (stereo not drawn)		> 100		> 100		> 100		> 100		> 100		> 100		> 100		> 100	> 100			
Clc1ccc2nc(Cl)c3ccccc3c2c1	46.8	> 100	10.5	35.7	22.1	> 100			20.9	> 100	2.03	5.02	> 100	> 100	4.04	> 100	> 100	24.7	> 100	> 100
COc1ccc(N=Nc2c(-c3ccccc3)nn(C(=O)CC(=O)Nc3ccccc3Cl)c2-c2ccccc2)cc1		> 100		> 100		> 100				> 100		> 100		8.85		> 100	> 100		> 100	
O=c1ccn(C2(CO)C=C(CO)C(O)C2O)c(=O)[nH]1 (stereo not drawn)		> 25.7						> 25.7				> 25.7		> 25.7		> 25.7	> 25.7		> 25.7	
Cc1ccc(/C=C/C(=O)c2ccc([N+](=O)[O-])cc2)cc1		> 100		> 100		> 100				> 100		> 100		> 100		> 100	> 100		> 100	
CC(C)CN1CC(C)C(=O)NC1=O (stereo not drawn)		> 100		> 100		> 100				> 100		> 100		> 100		> 100			> 100	
CCOc1cc2c(=O)oc3c(OC)ccc4ccc(c1OC)c2c43		> 100		> 100		> 100				> 100		> 100		> 100		> 100	> 100		> 100	
CN(C)C(=S)/N=c1\ss/c(=N\C(=S)N(C)C)n1Cc1ccco1		> 100						> 100				> 100		> 100		> 100			> 100	
COc1cc2cnc(-c3ccccc3)cc2cc1OC		58.5		45.1		> 100		36				82		50.7		73.4	85.6		> 100	
Nc1nccc2c1ccn2-c1cccc(NC(=O)c2ccc(N3CCOCC3)c(C(F)(F)F)c2)c1			0.371	1.85	1.84	> 50	0.992	4.98	0.997	> 16.2	1.77	> 36.1	1.7	> 22.8	0.826	11.5	1.41	0.318	> 47.5	1.06
